How the values were obtained:
UVA-induced ROS = assay: Reduction of UVA-induced ROS in organ culture of human skin (DCFH-DA); assay type: cell-based
Procedure: Organ culture of human skin was performed starting from a skin sample, exciding pieces of approximately 8×3 mm (ø×thickness). Skin samples (6 per treatment) were cultured in an air-liquid interface in a perforated ring of stainless steel in contact with culture medium (modified Williams' E medium).
At start of the skin culture, in parallel to untreated, the formulations 14.1 to 14.3 and 100% tocopherol acetate were applied topically on the skin samples and afterwards they were cultivated overnight. On the next day, the topical treatments were renewed for 1 hour. In parallel, culture medium with 100 μM of 2′,7′-dichlorofluorescin diacetate (DCFH-DA, Sigma #D6883) was prepared. After 1 hour of incubation of the skin samples, the culture medium was replaced by the medium containing DCFH-DA and the skin samples were incubated for 30 minutes. Then, the skin samples were washed in PBS buffer and UVA irradiation (lamp: Bio Sun by Vilber Lourmat, 60 J/cm2) was performed. Afterwards, the skin samples were harvested, cryo-fixed and cut at the cryostat for image acquisition and analysis. The image acquisition was performed using Olympus BX51 microscope and Olympus DP70 camera. Two skin sections for each skin sample were cut and the related images were acquired and analysed. Doing so, 12 images were obtained for each formulation for analysis. Image analysis was performed within the dermis area selected from the upper part by following the perimeter of the basal lamina to the deep dermis. The obtained values from were normalized upon the dimension of the selected area.

skin = settings: similar to the effect seen with dihydroxyacetone; cited from earlier work

| SMILES | reduction of UVA-induced ROS vs untreated UVA-irradiated (UVA-induced ROS; 100% tocopherol acetate, topical) | Modulation vs untreated + UVA (UVA-induced ROS; UVA 60 J/cm2) | Mean ROS score (UVA-induced ROS; UVA 60 J/cm2, topical overnight and renewed 1 hour, untreated no UVA 0.015, untreated + UVA 0.573) | production of free radicals (skin) |
| --- | --- | --- | --- | --- |
| CC(=O)Oc1c(C)c(C)c2c(c1C)CCC(C)(CCC[C@H](C)CCC[C@H](C)CCCC(C)C)O2 (stereo partly shown) [Tocopherol acetate] | 73% | −73% | 0.157 |  |
| O=C(CO)[C@H](O)CO [Erythrulose, D-Erythrulose] |  |  |  | increase production of free radicals |
